Blank lines part the entries; values can stand above or below the compound they belong to.
What was measured:
Format in all cases: biochemical
[1] = molecular target: T1, VAMT (vanillin aminotransferase; rVAMT) (Capsicum chinense, UniProt O82521); assay: HPLC assay of vanillin formation, Michaelis-Menten fit; conditions: 0.1 mM PLP, 50 mM potassium phosphate pH 8.0, standard assay 30 °C
T1 construct: full length, N-terminal His6-tag (pET28a) cut off by thrombin; recombinant from E. coli Rosetta2 (DE3)
T1 sequence (O82521 whole entry): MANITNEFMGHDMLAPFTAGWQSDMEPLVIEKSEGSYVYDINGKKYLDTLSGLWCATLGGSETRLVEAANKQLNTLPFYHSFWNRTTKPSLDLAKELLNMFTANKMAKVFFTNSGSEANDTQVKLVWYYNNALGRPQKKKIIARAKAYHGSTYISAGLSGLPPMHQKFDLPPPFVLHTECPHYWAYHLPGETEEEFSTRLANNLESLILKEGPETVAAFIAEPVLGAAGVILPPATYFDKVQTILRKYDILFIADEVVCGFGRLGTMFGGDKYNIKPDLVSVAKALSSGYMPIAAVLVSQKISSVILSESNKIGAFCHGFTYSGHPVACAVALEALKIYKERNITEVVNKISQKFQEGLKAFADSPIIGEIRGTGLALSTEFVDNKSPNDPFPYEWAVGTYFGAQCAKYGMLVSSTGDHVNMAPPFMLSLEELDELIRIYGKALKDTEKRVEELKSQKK
Source text: HPLC assay of vanillin formation, Michaelis-Menten fit on VAMT (vanillin aminotransferase; rVAMT)

[2] = molecular target: T1, VAMT (vanillin aminotransferase; rVAMT); assay: HPLC assay of vanillin glucoside formation, Michaelis-Menten fit; conditions: 100 mM pyruvate as amino acceptor, 0.1 mM PLP, 50 mM potassium phosphate pH 8.0; standard assay 30 °C
Source text: HPLC assay of vanillin glucoside formation, Michaelis-Menten fit on VAMT (vanillin aminotransferase; rVAMT)

[3] = molecular target: T1, VAMT (vanillin aminotransferase; rVAMT); assay: HPLC assay of vanillylamine formation, Michaelis-Menten fit; conditions: 0.1 mM PLP, 50 mM potassium phosphate pH 8.0, standard assay 30 °C, ping-pong
Source text: HPLC assay of vanillylamine formation, Michaelis-Menten fit on VAMT (vanillin aminotransferase; rVAMT)

[4] = molecular target: T1, VAMT (vanillin aminotransferase; rVAMT); assay: HPLC assay of vanillylamine glucoside formation, Michaelis-Menten fit; conditions: 100 mM GABA as amino donor, 0.1 mM PLP, 50 mM potassium phosphate pH 8.0; standard assay 30 °C
Source text: HPLC assay of vanillylamine glucoside formation, Michaelis-Menten fit on VAMT (vanillin aminotransferase; rVAMT)

Km ([1]; 5 mM vanillylamine as amino donor): 5.4 ± 0.34 mM
Compound: CC(=O)C(=O)O [Na pyruvate]

Km ([3]; 100 mM GABA as amino donor): 0.48 ± 0.049 mM
Compound: COc1cc(C=O)ccc1O [V]

Km ([3]; 5 mM vanillin as amino acceptor): 36 ± 2.1 mM
Compound: NCCCC(=O)O [GABA]

More lines, now with the values behind:

Compound: COc1cc(CN)ccc1O [VA]
Km ([1]; 100 mM pyruvate as amino acceptor): 0.25 ± 0.037 mM

Compound: COc1cc(CN)ccc1O[C@@H]1O[C@H](CO)[C@@H](O)[C@H](O)[C@H]1O [VAG]
Km [2]: 15 ± 4.8 mM

Compound: COc1cc(C=O)ccc1O[C@@H]1O[C@H](CO)[C@@H](O)[C@H](O)[C@H]1O [VG]
Km [4]: 3.3 ± 0.56 mM

Reference: article PMC10987797, “Functional characterization of Capsicum chinense vanillin aminotransferase: Detection of vanillylamine-forming activity from vanillin” (Biochemistry and Biophysics Reports, 2024)
